Data reported in PubChem BioAssay AID2060910 (Molecular Pharmacology Branch, DTP, NCI, 2025).

System: 242566-281-R-J2-PDC complex spheroid viability
Test: Anticancer human tumor 242566-281-R-J2-PDC patient-derived pancreatic carcinoma cell line growth inhibition [RAS]
Conditions: for viability, T/C: stronger effect = lower value; active = viability on the fitted dose curve at most 10% of control; inactive = the rest
In short: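 Multi-cell-type spheroids: tumor cells plus HUVEC endothelial cells and mesenchymal stem cells. RAS-pathway inhibitors were combined with targeted agents, each dosed in half-log steps down from clinical Cmax, or from 10 microM when Cmax was unknown.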

[1] = curve of first compound, second compound 0.00316 µM
[2] = curve of first compound, second compound 0.01 µM
[3] = curve of first compound, second compound 0.0316 µM
[4] = curve of first compound, second compound 0.1 µM
[5] = curve of first compound, second compound 0.316 µM
[6] = curve of first compound, second compound 1 µM
[7] = second compound 0.00316 µM, first compound 0.0316 µM
[8] = second compound 0.00316 µM, first compound 0.1 µM
[9] = second compound 0.00316 µM, first compound 0.316 µM
[10] = second compound 0.00316 µM, first compound 1 µM
[11] = second compound 0.00316 µM, first compound 3.16 µM
[12] = second compound 0.00316 µM, first compound 10 µM
[13] = second compound 0.01 µM, first compound 0.0316 µM
[14] = second compound 0.01 µM, first compound 0.1 µM
[15] = second compound 0.01 µM, first compound 0.316 µM
[16] = second compound 0.01 µM, first compound 1 µM
[17] = second compound 0.01 µM, first compound 3.16 µM
[18] = second compound 0.01 µM, first compound 10 µM
[19] = second compound 0.0316 µM, first compound 0.0316 µM
[20] = second compound 0.0316 µM, first compound 0.1 µM
[21] = second compound 0.0316 µM, first compound 0.316 µM
[22] = second compound 0.0316 µM, first compound 1 µM
[23] = second compound 0.0316 µM, first compound 3.16 µM
[24] = second compound 0.0316 µM, first compound 10 µM
[25] = second compound 0.1 µM, first compound 0.0316 µM
[26] = second compound 0.1 µM, first compound 0.1 µM
[27] = second compound 0.1 µM, first compound 0.316 µM
[28] = second compound 0.1 µM, first compound 1 µM
[29] = second compound 0.1 µM, first compound 3.16 µM
[30] = second compound 0.1 µM, first compound 10 µM
[31] = second compound 0.316 µM, first compound 0.0316 µM
[32] = second compound 0.316 µM, first compound 0.1 µM
[33] = second compound 0.316 µM, first compound 0.316 µM
[34] = second compound 0.316 µM, first compound 1 µM
[35] = second compound 0.316 µM, first compound 3.16 µM
[36] = second compound 0.316 µM, first compound 10 µM
[37] = second compound 1 µM, first compound 0.0316 µM
[38] = second compound 1 µM, first compound 0.1 µM
[39] = second compound 1 µM, first compound 0.316 µM
[40] = second compound 1 µM, first compound 1 µM
[41] = second compound 1 µM, first compound 3.16 µM
[42] = second compound 1 µM, first compound 10 µM
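Also: spheroids exposed to compound for 7 days before readout.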
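For viability, T/C in this document: 100% = DMSO vehicle control wells.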

CC1(O)CCCC1n1c(=O)c(C(F)F)cc2cnc(NC3CCN(S(C)(=O)=O)CC3)nc21 (stereo unspecified) + C=CC(=O)N1CCN(c2nc(OCC3CCCN3C)nc3c(F)c(-c4nc(N)cc(C)c4C(F)(F)F)c(Cl)cc23)C(C)C1
inactive: viability, T/C [7] 86.6% | viability, T/C [8] 108% | viability, T/C [9] 83.9% | viability, T/C [10] 108% | viability, T/C [11] 112% | viability, T/C [12] 72.7% | viability, T/C [13] 99% | viability, T/C [14] 113% | viability, T/C [15] 106% | viability, T/C [16] 99.5% | viability, T/C [17] 123% | viability, T/C [18] 68.9% | viability, T/C [19] 94.7% | viability, T/C [20] 106% | viability, T/C [21] 108% | viability, T/C [22] 132% | viability, T/C [23] 115% | viability, T/C [24] 66.6% | viability, T/C [25] 96.3% | viability, T/C [26] 104% | viability, T/C [27] 97.9% | viability, T/C [28] 106% | viability, T/C [29] 112% | viability, T/C [30] 68.2% | viability, T/C [31] 96.5% | viability, T/C [32] 108% | viability, T/C [33] 89.5% | viability, T/C [34] 116% | viability, T/C [35] 139% | viability, T/C [36] 64.5% | viability, T/C [37] 92.1% | viability, T/C [38] 126% | viability, T/C [39] 110% | viability, T/C [40] 98.1% | viability, T/C [41] 112% | viability, T/C [42] 44.2%
> 10 µM: IC50 [1] | IC50 [2] | IC50 [3] | IC50 [4] | IC50 [5]
9.01 µM: IC50 [6]

CC(=O)OC12COC1CC(O)C1(C)C(=O)C(O)C3=C(C)C(OC(=O)C(O)C(NC(=O)OC(C)(C)C)c4ccccc4)CC(O)(C(OC(=O)c4ccccc4)C21)C3(C)C (stereo unspecified) + C=CC(=O)N1CCN(c2nc(OCC3CCCN3C)nc3c(F)c(-c4nc(N)cc(C)c4C(F)(F)F)c(Cl)cc23)C(C)C1
> 10 µM: IC50 [4] | IC50 [5]
0.122 µM: IC50 [3]
0.237 µM: IC50 [2]
inactive: viability, T/C [7] 52.6% | viability, T/C [8] 53.8% | viability, T/C [9] 50.5% | viability, T/C [10] 35.5% | viability, T/C [11] 54.5% | viability, T/C [12] 69.3% | viability, T/C [13] 71.5% | viability, T/C [14] 53% | viability, T/C [15] 42.2% | viability, T/C [16] 41.8% | viability, T/C [17] 45.2% | viability, T/C [18] 66.8% | viability, T/C [19] 80.4% | viability, T/C [20] 51.9% | viability, T/C [21] 39.3% | viability, T/C [22] 35.6% | viability, T/C [23] 48.5% | viability, T/C [24] 66.5% | viability, T/C [25] 61.1% | viability, T/C [26] 51.4% | viability, T/C [27] 47.6% | viability, T/C [28] 37.9% | viability, T/C [29] 46.5% | viability, T/C [30] 68.2% | viability, T/C [31] 64.9% | viability, T/C [32] 52.1% | viability, T/C [33] 37% | viability, T/C [34] 49.3% | viability, T/C [35] 55.7% | viability, T/C [36] 71.4% | viability, T/C [37] 52.7% | viability, T/C [38] 51.1% | viability, T/C [39] 44.8% | viability, T/C [40] 42.8% | viability, T/C [41] 50.9% | viability, T/C [42] 65.7%
< 0.0316 µM: IC50 [1] | IC50 [6]

C=CC(=O)Nc1cc(Nc2nccc(-c3cn(C)c4ccccc34)n2)c(OC)cc1N(C)CCN(C)C
inactive: viability, T/C (compound 0.00316 µM) 105% [middle of 4 runs] | viability, T/C (compound 0.01 µM) 101% [middle of 4 runs] | viability, T/C (compound 0.0316 µM) 90.5% [middle of 4 runs] | viability, T/C (compound 0.1 µM) 91.2% [middle of 4 runs]
> 1 µM: IC50 (curve of compound)

CC1(C)CCC(Nc2ncc(C(F)(F)F)c(-c3c[nH]c4c(P(C)(C)=O)c(C#N)ccc34)n2)CN1 (stereo unspecified) + C=CC(=O)N1CCN(c2nc(OCC3CCCN3C)nc3c(F)c(-c4nc(N)cc(C)c4C(F)(F)F)c(Cl)cc23)C(C)C1
inactive: viability, T/C (second compound 0.00316 µM, first compound 0.000949 µM) 109% | viability, T/C (second compound 0.00316 µM, first compound 0.003 µM) 161% | viability, T/C (second compound 0.00316 µM, first compound 0.00949 µM) 154% | viability, T/C (second compound 0.00316 µM, first compound 0.03 µM) 128% | viability, T/C (second compound 0.00316 µM, first compound 0.0949 µM) 146% | viability, T/C (second compound 0.00316 µM, first compound 0.3 µM) 135% | viability, T/C (second compound 0.01 µM, first compound 0.000949 µM) 137% | viability, T/C (second compound 0.01 µM, first compound 0.003 µM) 151% | viability, T/C (second compound 0.01 µM, first compound 0.00949 µM) 142% | viability, T/C (second compound 0.01 µM, first compound 0.03 µM) 124% | viability, T/C (second compound 0.01 µM, first compound 0.0949 µM) 158% | viability, T/C (second compound 0.01 µM, first compound 0.3 µM) 129% | viability, T/C (second compound 0.0316 µM, first compound 0.000949 µM) 114% | viability, T/C (second compound 0.0316 µM, first compound 0.003 µM) 173% | viability, T/C (second compound 0.0316 µM, first compound 0.00949 µM) 133% | viability, T/C (second compound 0.0316 µM, first compound 0.03 µM) 113% | viability, T/C (second compound 0.0316 µM, first compound 0.0949 µM) 138% | viability, T/C (second compound 0.0316 µM, first compound 0.3 µM) 132% | viability, T/C (second compound 0.1 µM, first compound 0.000949 µM) 151% | viability, T/C (second compound 0.1 µM, first compound 0.003 µM) 130% | viability, T/C (second compound 0.1 µM, first compound 0.00949 µM) 103% | viability, T/C (second compound 0.1 µM, first compound 0.03 µM) 137% | viability, T/C (second compound 0.1 µM, first compound 0.0949 µM) 138% | viability, T/C (second compound 0.1 µM, first compound 0.3 µM) 144% | viability, T/C (second compound 0.316 µM, first compound 0.000949 µM) 152% | viability, T/C (second compound 0.316 µM, first compound 0.003 µM) 144% | viability, T/C (second compound 0.316 µM, first compound 0.00949 µM) 147% | viability, T/C (second compound 0.316 µM, first compound 0.03 µM) 109% | viability, T/C (second compound 0.316 µM, first compound 0.0949 µM) 143% | viability, T/C (second compound 0.316 µM, first compound 0.3 µM) 149% | viability, T/C (second compound 1 µM, first compound 0.000949 µM) 130% | viability, T/C (second compound 1 µM, first compound 0.003 µM) 139% | viability, T/C (second compound 1 µM, first compound 0.00949 µM) 142% | viability, T/C (second compound 1 µM, first compound 0.03 µM) 123% | viability, T/C (second compound 1 µM, first compound 0.0949 µM) 128% | viability, T/C (second compound 1 µM, first compound 0.3 µM) 121%
> 0.3 µM: IC50 [1] | IC50 [2] | IC50 [3] | IC50 [4] | IC50 [5] | IC50 [6]
